# “Also recorded” adds a separate entry of the source.
# Key:
# [1] = test system: Staphylococcus aureus (H-Heatley strain, NRRL B-314); test: antibacterial bioassay (J. E. Westhead); assay type: cell-based
# Source text: The compounds of this invention are useful antibacterial agents. In this aspect, these compounds may be used in the same manner in which the parent antibiotic is used, as described in U.S. Pat. No. 3,923,823. A bioassay for the antibacterial activity of A-23187 has been described by J. E. Westhead in Antimicrobial Agents and Chemotherapy 11 (5), 916-918 (1977). The test organism for this bioassay is Staphylococcus aureus (H-Heatley strain, NRRL B-314).
# [2] = target: cation transport ATPase in liver mitochondria; test: inhibition of cation transport ATPase in liver mitochondria, in vitro; assay type: biochemical
# Source text: In yet another aspect, the compounds of this invention are active as inhibitors of the enzyme ATPase. ATPase, an alkali-metal-sensitive enzyme found in cell membranes, is involved in the energy necessary for active transport. "Active transport" refers to the energy-requiring series of operations whereby intracellular and extracellular fluids maintain their compositions. Inhibitors of ATPase reduce the energy required for active transport. Table V summarizes the results of in vitro tests measuring inhibition of cation transport ATPase in liver mitochondria [measured as half effective concentration (Ic 50) in mcg/ml].
# mice = test: acute toxicity in mice, intraperitoneal; assay type: in vivo; conditions: intraperitoneally
# Description: (§1) The compounds of the present invention are, in general, less toxic than the parent antibiotic. Table II summarizes the acute toxicities of representative compounds in mice, expressed as LD50, when the compounds are administered intraperitoneally.
# [3] = test system: isolated guinea-pig atria; test: cardiac contractility in isolated guinea-pig atria; conditions: 10^-5 molar
# Source text: The compounds of this invention are also potential cardiotonic agents. […] Response to this test is expressed as a percentage of the maximal contractile tension that could be elicited by a challenge dose of norepinephrine (10^-4 M). For a more detailed description of this test, see U.S. Pat. No. 3,985,893. In this test, 4-bromo-A-23187 free acid and its Mg^++ salt, each at a 10^-5 molar concentration, produced mean increases in contractile tension of 48 and 59 percent, respectively.
# [4] = acute toxicity in mice, intraperitoneal; assay type: in vivo; conditions: mouse, in vivo, ip, intraperitoneally
# Description: as §1
# bovine spermatozoa = test: Ca^++ influx induced in bovine spermatozoa, inhibition by Mg^++; assay type: cell-based; conditions: for Ca^++ Influx: bovine spermatozoa
# Source text: The compounds of this invention affect ion transport with altered selectivities compared to the parent compound.
# Cuinea Pig Sperm = test: effect on acrosome reaction, guinea pig sperm; assay type: cell-based; conditions: untreated: 110
# Source text: Table IV summarizes the effect of an illustrative compound of this invention on mammalian sperm motility and acrosome reaction.
# Bovine Sperum = conditions: bovine sperm; untreated: 2
# mammalian sperm [5] = conditions: cited from earlier work
# mammalian sperm [6] = conditions: cited from earlier work; remark: listed apart in the source
# [7] = cited from earlier work
# [8] = ATPase induced by K^+ monazomycin
smiles,measurement,setting,value
"CNc1c(Br)cc2oc(CC3OC4(CCC3C)OC(C(C)C(=O)c3cc(Br)c[nH]3)C(C)CC4C)nc2c1C(=O)O (stereo not drawn) [4,23-dibromo-A-23187 (free acid), 6-bromo-5-(methylamino)-2-[[3β,9α,11β-trimethyl-8-[1α-methyl-2-oxo-2-(4-bromo-1H-pyrrol-2-yl)ethyl]-1,7-dioxaspiro[5.5]undec-2β-yl]methyl]-4-benzoxazolecarboxylic acid]",Bioassay,[1],940 µg/mL
same,half effective concentration (Ic 50),[2]; ATPase induced by CaCl2,0.9 µg/mL
same,half effective concentration (Ic 50),[2]; [8],0.5 µg/mL
CNc1ccc2oc(CC3OC4(CCC3C)OC(C(C)C(=O)c3cc(Br)c[nH]3)C(C)CC4C)nc2c1C(=O)[O-].CNc1ccc2oc(CC3OC4(CCC3C)OC(C(C)C(=O)c3cc(Br)c[nH]3)C(C)CC4C)nc2c1C(=O)[O-].[Mg+2] (stereo not drawn) [4-bromo-A-23187 (Mg complex)],LD50,mice,18.75 mg/kg × 1
same,"mean increase in contractile tension, percentage of the maximal contractile tension elicited by norepinephrine (10^-4 M)",[3],59%
"CNc1c(Br)cc2oc(CC3OC4(CCC3C)OC(C(C)C(=O)c3ccc[nH]3)C(C)CC4C)nc2c1C(=O)O (stereo not drawn) [4-bromo-A-23187 (free acid), 6-bromo(or chloro)-5-(methylamino)-2-[[3β,9α,-11β-trimethyl-8-[1α-methyl-2-oxo-2-(1H-pyrrol-2-yl)ethyl]-1,7-dioxaspiro[5.5]undec-2β-yl]-methyl]-4-benzoxazolecarboxylic acid]",Bioassay,[1],835 µg/mL
same,LD50,[4],11.9 mg/kg
same,Ca^++ Influx,bovine spermatozoa; [Mg^++ ]/[Ca^++ ] 0,3.4 nmole Ca^++ min × mg protein
same,Ca^++ Influx,bovine spermatozoa; [Mg^++ ]/[Ca^++ ] 20,3.4 nmole Ca^++ min × mg protein
same,Ca^++ Influx,bovine spermatozoa; [Mg^++ ]/[Ca^++ ] 40,3.4 nmole Ca^++ min × mg protein
same,Ca^++ Influx,bovine spermatozoa; [Mg^++ ]/[Ca^++ ] 80,0.5 nmole Ca^++ min × mg protein
same,effectiveness of Mg^++ in inhibiting the induced influx of Ca^++ (in words),bovine spermatozoa; compared with comparable dosage of A-23187,much less effective
same,Time Until Acrosome Reaction,Cuinea Pig Sperm,30 min
same,half effective concentration (Ic 50),[2]; ATPase induced by CaCl2,0.9 µg/mL
same,half effective concentration (Ic 50),[2]; [8],0.3 µg/mL
same,activation at 10 µM,"[3]; Cavia porcellus, read-out: mean increase in contractile tension, percentage of the maximal contractile tension elicited by norepinephrine (10^-4 M)",48%
same,Motility Index,Bovine Sperum,5
CNc1ccc2oc(CC3OC4(CCC3C)OC(C(C)C(=O)c3cc(Cl)c[nH]3)C(C)CC4C)nc2c1C(=O)[O-].CNc1ccc2oc(CC3OC4(CCC3C)OC(C(C)C(=O)c3cc(Cl)c[nH]3)C(C)CC4C)nc2c1C(=O)[O-].[Mg+2] (stereo not drawn) [4-chloro-A-23187 (Mg complex)],LD50,mice,29.8 mg/kg × 1
"CNc1c(Cl)cc2oc(CC3OC4(CCC3C)OC(C(C)C(=O)c3ccc[nH]3)C(C)CC4C)nc2c1C(=O)O (stereo not drawn) [4-chloro-A-23187 (free acid), 6-bromo(or chloro)-5-(methylamino)-2-[[3β,9α,-11β-trimethyl-8-[1α-methyl-2-oxo-2-(1H-pyrrol-2-yl)ethyl]-1,7-dioxaspiro[5.5]undec-2β-yl]-methyl]-4-benzoxazolecarboxylic acid]",Bioassay,[1],298 µg/mL
same,LD50,[4],10.5 mg/kg
same,half effective concentration (Ic 50),[2]; ATPase induced by CaCl2,10 µg/mL
same,half effective concentration (Ic 50),[2]; [8],0.2 µg/mL
"CNc1c(Br)cc2oc(CC3OC4(CCC3C)OC(C(C)C(=O)c3[nH]c(Br)c(Br)c3Br)C(C)CC4C)nc2c1C(=O)O (stereo not drawn) [6-bromo-5-(methylamino)-2-[[3β,9α,11β-trimethyl-8-[1α-methyl-2-oxo-2-(3,4,5-tribromo-1H-pyrrol-2-yl)ethyl]-1,7-dioxaspiro[5.5]undec-2β-yl]methyl]-4-benzoxazolecarboxylic acid]",Bioassay,[1],585 µg/mL
"CNc1ccc2oc(CC3OC4(CCC3C)OC(C(C)C(=O)c3ccc[nH]3)C(C)CC4C)nc2c1C(=O)O (stereo not drawn) [A-23187 (free acid), reference compound]",Bioassay,[1],1060 µg/mL
same,LD50,[4],5.8 mg/kg
same,Ca^++ Influx,bovine spermatozoa; [Mg^++ ]/[Ca^++ ] 0,3.5 nmole Ca^++ min × mg protein
same,Ca^++ Influx,bovine spermatozoa; [Mg^++ ]/[Ca^++ ] 5,2.0 nmole Ca^++ min × mg protein
same,Ca^++ Influx,bovine spermatozoa; [Mg^++ ]/[Ca^++ ] 10,1.2 nmole Ca^++ min × mg protein
same,Ca^++ Influx,bovine spermatozoa; [Mg^++ ]/[Ca^++ ] 20,0.5 nmole Ca^++ min × mg protein
same,Time Until Acrosome Reaction,Cuinea Pig Sperm,30 min
same,half effective concentration (Ic 50),[2]; ATPase induced by CaCl2,0.5 µg/mL
same,half effective concentration (Ic 50),[2]; [8],0.5 µg/mL
same,Motility Index,Bovine Sperum,4
same,activation of sperm motility (in words),mammalian sperm [5],activates the motility
same,induction of acrosome reaction (in words),mammalian sperm [6],induces the acrosome reaction
same,selectivity for transport of divalent over monovalent cations (in words),[7],substantially selective for the transport of divalent over monovalent cations; also recorded: not complete

# — patent publication US4227002A, “Halo-A-23187 derivatives” (Eli Lilly and Company, priority 1978, dated 1980)
